From patent US10316070B2, “Dual protected pro-coelenterazine substrates” (PROMEGA CORPORATION, priority 2016, dated 2019)

Tested on: alkaline phosphatase
Assay: Alkaline phosphatase assay: light output of furimazine mono- or bis-phosphate pro-substrate with Nanoluc, with and without alkaline phosphatase
Assay type: biochemical
Conditions: for Signal to Background: alkaline phosphatase vs none; for Background RLU: without alkaline phosphatase, Nanoluc
Method: Alkaline phosphatase assays. To the solution of 50 μl furimazine mono- or bis-phosphate compound (50 μM) and 50 μL of NanoGlo buffer containing 1 ng/mL Nanoluc was added, then alkaline phosphatase (Sigma) in PBS with final concentration at 1 Unit/ml/μM was added, and the light output was measured over time. The background of pro-substrate was measured under same condition without adding alkaline phasphotase.
The synthesized coelenterazine analogues (compounds of formula (I)) were evaluated for their background and signal/background ratio.

SMILES	Signal to Background (Time 5 min)	Background RLU (Time 5 min)	Signal to Background (Time 11 min)	Background RLU (Time 11 min)	Signal to Background (Time 21 min)	Background RLU (Time 21 min)	Signal to Background (Time 31 min)	Background RLU (Time 31 min)	Signal to Background (Time 42 min)	Background RLU (Time 42 min)	Signal to Background (Time 62 min)	Background RLU (Time 62 min)	Signal to Background (Time 93 min)	Background RLU (Time 93 min)	Signal to Background (Time 123 min)	Background RLU (Time 123 min)	background (in words) (compared to mono-protected analogue WZ-0263)	signal-to-background ratio (in words) (compared to mono-protected analogues WZ-0263 and WZ-0265)
O=P(O)(O)Oc1ccc(COc2c(Cc3ccco3)nc3c(Cc4ccccc4)nc(-c4ccccc4)cn23)cc1 [WZ-0263, Furimazine Benzyl Phosphate]	203	32,464 RLU	232	36,745 RLU	236	42,522 RLU	245	48,399 RLU	244	54,309 RLU	230	65,661 RLU	200	80,929 RLU	170	94,825 RLU		
O=P(O)(O)Oc1c(Cc2ccco2)nc2c(Cc3ccccc3)nc(-c3ccccc3)cn12 [WZ-0265, Furimazine Phosphate]	3	9,033,396 RLU	3	9,181,168 RLU	3	9,310,668 RLU	3	9,376,837 RLU	2	9,394,555 RLU	2	9,359,460 RLU	2	9,089,377 RLU	2	8,772,026 RLU		
O=P(O)(O)Oc1ccc(COc2c(Cc3ccco3)nc3c(Cc4ccccc4)nc(-c4cccc(OP(=O)(O)O)c4)cn23)cc1 [WZ-0291, Furimazine Bis-Phosphate]	18,907	713 RLU	18,699	739 RLU	19,076	723 RLU	18,846	723 RLU	18,568	722 RLU	18,861	678 RLU	17,014	680 RLU	14,664	704 RLU	low	significantly higher
